What was measured:
[1] = tested on: Aurora-A in U251 and RPE1 cells; test: Western blot, total Aurora-A protein level; format: cell-based, Homo sapiens; settings: mitotic U251 and RPE1 lysates, siRNA 48 h
Method: Cells were lysed on ice for 30 min in lysis buffer (50 mM tris pH 8.0, 300 mM NaCl, 0.2%(v/v) NP-40, 10%(v/v) glycerol, protease inhibitor cocktail C, phosphatase inhibitor cocktail 3 (Sigma, 1:200 dilution), 100 nM okadaic acid (Enzo, ALX-350-003-C100)). Lysates were then centrifuged at 14,000 × g, 15 min, 4 °C, the supernatants were transferred to a fresh tube, and the pellet was discarded. Protein concentrations were measured by Bradford assay using Protein Assay Dye Reagent Concentrate (Bio-Rad Laboratories, 5000006). NuPage LDS sample buffer, supplemented with NuPAGE sample reducing agent (Invitrogen) were added prior to boiling for 10 min at 90 °C. Equal amounts of protein, between 8–20 µg/lane, were loaded into pre-cast 4–12% Bis-Tris gels (Invitrogen, NP0322BOX) and proteins separated in 1x MOPS buffer (Invitrogen) and transferred to nitrocellulose membrane (0.45 µM). Nitrocellulose was then blocked in 5% milk (wt/v) in TBS, 0.1% Tween (v/v) (TBST) for 1 h. Primary and secondary antibodies were diluted in 5% milk, TBST and incubated overnight at 4 °C or for 1 h at room temperature, respectively. Species-specific secondary antibodies conjugated to horseradish peroxidase (HRP) were used (anti-Mouse, Cytiva NA931V; anti-Rabbit, Cytiva NA934; anti-Sheep, Jackson 713-035-003). Membranes were washed for 1 h in TBST, changing the buffer five times, after each antibody incubation. […]

[2] = tested on: TCTP-pS46 in RPE1 p53-/- cells; test: Western blot densitometry, TCTP-pS46, RPE1 p53-/-; format: cell-based, Homo sapiens; settings: mitotic RPE1 p53-/- lysates, inhibitor 30 min
Method: For measuring monopolar spindle diameter and counting centriolar foci by immunofluorescence, cells were treated with 10 µM STLC for 1 h and 4 h prior to fixation, respectively.
Drugs were resuspended in DMSO to the stock concentrations indicated in square brackets.
Cells were lysed on ice for 30 min in lysis buffer (50 mM tris pH 8.0, 300 mM NaCl, 0.2%(v/v) NP-40, 10%(v/v) glycerol, protease inhibitor cocktail C, phosphatase inhibitor cocktail 3 (Sigma, 1:200 dilution), 100 nM okadaic acid (Enzo, ALX-350-003-C100)). Lysates were then centrifuged at 14,000 × g, 15 min, 4 °C, the supernatants were transferred to a fresh tube, and the pellet was discarded. Protein concentrations were measured by Bradford assay using Protein Assay Dye Reagent Concentrate (Bio-Rad Laboratories, 5000006). NuPage LDS sample buffer, supplemented with NuPAGE sample reducing agent (Invitrogen) were added prior to boiling for 10 min at 90 °C. […] Nitrocellulose was then blocked in 5% milk (wt/v) in TBS, 0.1% Tween (v/v) (TBST) for 1 h. Primary and secondary antibodies were diluted in 5% milk, TBST and incubated overnight at 4 °C or for 1 h at room temperature, respectively. […]
Densitometric quantification of western blots was also performed in ImageJ. Intensity was measured in a rectangular region of interest (ROI) around each band. […] An adjacent region was also measured to account for background intensity.

Molecule	total Aurora-A protein levels [1]	phosphorylation of TCTP (pS46) [2]
5′-CGGUAGUGAUAAAAGCUCAtt-3′ [siTPX2]	decreased total Aurora-A protein levels	
COc1cc(Nc2ncc3c(n2)-c2ccc(Cl)cc2C(c2c(F)cccc2OC)=NC3)ccc1C(=O)O [Alisertib]		decreased

Source: PMC11574021, “CEP192 localises mitotic Aurora-A activity by priming its interaction with TPX2” (The EMBO Journal, 2024)
